Experimental findings from ChEMBL document CHEMBL1157244, “Triterpenoid saponins from the fruits of Caryocar glabrum” (J Nat Prod, 2006) are described below.

Data set [1] in a line: Toxicity in sheep erythrocytes assessed as hemolysis. The data set is classed as cell-based, Ovis aries, Erythrocyte. Conditions: for HD100: erythrocyte; for HC50: sheep erythrocytes, read-out: HD50 (the source's name).
Data set [2] in a line: Toxicity in sheep erythrocytes assessed as hemolysis at >500 ug/mL. The data set is classed as cell-based, Ovis aries, Erythrocyte. Conditions: read-out: Activity.

Consider `CC1(C)CC[C@]2(C(=O)O)CC[C@]3(C)C(=CC[C@@H]4[C@@]5(C)C[C@H](O)[C@H](O[C@@H]6O[C@H](C(=O)O)[C@@H](O)[C@H](O[C@@H]7O[C@H](CO)[C@H](O)[C@H](O)[C@H]7O)[C@H]6O)[C@@](C)(CO)[C@@H]5CC[C@]43C)[C@@H]2C1`, for which, in data set [1], the HD100 came out at 121 µM and the HC50 stood at 66 µM.

As for `COC(=O)[C@H]1O[C@@H](O[C@H]2[C@@H](O)C[C@]3(C)[C@H]4CC=C5[C@@H]6CC(C)(C)CC[C@]6(C(=O)O)CC[C@@]5(C)[C@]4(C)CC[C@H]3C2(C)C)[C@H](O)[C@@H](O[C@@H]2O[C@H](CO)[C@H](O)[C@H](O)[C@H]2O)[C@@H]1O`, in data set [1], the HD100 came out at 303 µM and the HC50 is 157 µM.

`CC1(C)CC[C@]2(C(=O)O)CC[C@]3(C)C(=CC[C@@H]4[C@@]5(C)CC[C@H](O[C@@H]6O[C@H](C(=O)O)[C@@H](O)[C@H](O[C@@H]7O[C@H](CO)[C@H](O)[C@H](O)[C@H]7O)[C@H]6O)C(C)(C)[C@@H]5CC[C@]43C)[C@@H]2C1` [GLYCOSIDE D]: in data set [1], the HD100 came out at 31 µM and the HC50 was 19 µM.

Take `CC1(C)CC[C@]2(C(=O)O)CC[C@]3(C)C(=CC[C@@H]4[C@@]5(C)CC[C@H](O[C@@H]6O[C@H](C(=O)O)[C@@H](O)[C@H](O)[C@H]6O)[C@@](C)(CO)C5CC[C@]43C)[C@@H]2C1` (stereo not given in full): in data set [1], the HD100 was 116 µM and the HC50 was 93 µM.

For the molecule `CC1(C)CC[C@]2(C(=O)O[C@@H]3O[C@H](CO)[C@@H](O)[C@H](O)[C@H]3O)CC[C@]3(C)C(=CC[C@@H]4[C@@]5(C)C[C@H](O)[C@H](O[C@@H]6O[C@H](CO)[C@@H](O)[C@H](O[C@@H]7O[C@H](CO)[C@H](O)[C@H](O)[C@H]7O)[C@H]6O)[C@@](C)(CO)[C@@H]5CC[C@]43C)[C@@H]2C1`, the HD100 in data set [1] was over 513 µM. Moreover, in data set [2], the hemolysis was determined as 10%.

With `CC1(C)CC[C@]2(C(=O)O)CC[C@]3(C)C(=CC[C@@H]4[C@@]5(C)C[C@H](O)[C@H](O[C@@H]6O[C@H](CO)[C@@H](O)[C@H](O[C@@H]7O[C@H](CO)[C@H](O)[C@H](O)[C@H]7O)[C@H]6O)[C@@](C)(CO)[C@@H]5CC[C@]43C)[C@@H]2C1`, in data set [1], the HD100 is 24 µM and the HC50 was 18 µM.

As to `CC1(C)CC[C@]2(C(=O)O)CC[C@]3(C)C(=CC[C@@H]4[C@@]5(C)CC[C@H](O[C@@H]6O[C@H](CO)[C@@H](O)[C@H](O[C@@H]7O[C@H](CO)[C@H](O)[C@H](O)[C@H]7O)[C@H]6O)[C@@](C)(CO)[C@@H]5CC[C@]43C)[C@@H]2C1`, in data set [1], the HD100 turned out to be 94 µM and the HC50 came to 56 µM.

For `CC1(C)CC[C@]2(C(=O)O)CC[C@]3(C)C(=CC[C@@H]4[C@@]5(C)CC[C@H](O[C@@H]6O[C@H](C(=O)O)[C@@H](O)[C@H](O[C@@H]7O[C@H](CO)[C@H](O)[C@H](O)[C@H]7O)[C@H]6O)[C@@](C)(CO)[C@@H]5CC[C@]43C)[C@@H]2C1`, in data set [1], the HD100 stood at 93 µM and the HC50 stood at 45 µM.

Consider `CC1(C)CC[C@]2(C(=O)O)CC[C@]3(C)C(=CC[C@@H]4[C@@]5(C)C[C@H](O)[C@H](O[C@@H]6O[C@H](C(=O)O)[C@@H](O)[C@H](O[C@@H]7O[C@H](CO)[C@H](O)[C@H](O)[C@H]7O)[C@H]6O)C(C)(C)[C@@H]5CC[C@]43C)[C@@H]2C1`, for which, in data set [1], the HD100 came out at 49 µM and the HC50 was determined as 32 µM.

Take `CC1(C)CC[C@]2(C(=O)O[C@@H]3O[C@H](CO)[C@@H](O)[C@H](O)[C@H]3O)CC[C@]3(C)C(=CC[C@@H]4[C@@]5(C)CC[C@H](O[C@@H]6O[C@H](C(=O)O)[C@@H](O)[C@H](O[C@@H]7O[C@H](CO)[C@H](O)[C@H](O)[C@H]7O)[C@H]6O)[C@@](C)(CO)[C@@H]5CC[C@]43C)[C@@H]2C1`: in data set [1], the HD100 was found to be 514 µM and the HC50 is 309 µM.
